Here are results for two compounds from patent US6596889B1, “Nitrates of bis-platinum complexes with polyamine ligands” (Novuspharma S.p.A., priority 1999, dated 2003).

Counter-ions that a name gives are not always drawn.

A short description of the series: HPLC stability following heating at 40° C. for 12 days under atmospheric pressure. The class given is physicochemical. The method, then:
column: Lichrospher RP8 (5 μm), 125×4 mm
The following table reports the HPLC data concerning the stability of Compound 1 and of Compound A (prepared as described in example 16 of WO 98/03519) following heating at 40° C. for 12 days under atmospheric pressure.
The used chromatographic method is that described in Example 3 and Example 4. The values of […] are in percent area.

Setting [1] is: 12 days 40° C., atmospheric pressure.

With `[NH2][Pt+]([NH2])([Cl])[NH]CCC[NH2+]CCCC[NH2+]CCC[NH][Pt+]([NH2])([NH2])[Cl]` [Compound 1, bis{trans(diammine)(chloro)platinum(II)}-μ-(1,12-diamino-4,9-diazadodecane-N^1, N^12) dinitrate salt.2HNO3], under setting [1], the “HPLC mean peak area” value is 98.4 percent area; the “main impurity, retention time 7 min, HPLC area” value came to 0.1 percent area; the “main impurity, retention time 8 min, HPLC area” value was determined as 0.1 percent area; the “main impurity, retention time 12 min, HPLC area” value was 0.2 percent area. Also, under setting [1], the “main impurity, retention time 14 min, HPLC area” value is listed as 0.9 percent area; the “main impurity, retention time 30 min, HPLC area” value is on record as <0.1 percent area; the “main impurity, retention time 31 min, HPLC area” value was 0.2 percent area. Further, under “t = 0”, the “HPLC mean peak area” value is recorded as 98.5 percent area; the “main impurity, retention time 7 min, HPLC area” value is 0.1 percent area; the “main impurity, retention time 8 min, HPLC area” value is 0.1 percent area; the “main impurity, retention time 12 min, HPLC area” value was determined as 0.1 percent area. Moreover, under “t = 0”, the “main impurity, retention time 14 min, HPLC area” value turned out to be 0.8 percent area and the “main impurity, retention time 30 min, HPLC area” value is <0.1 percent area.

For “bis{trans(diammine)(chloro)platinum(II)}-μ-(1,12-diamino-4,9-diazadodecane-N^1, N^12)dichloride salt.2HCl [Compound A]”, under setting [1], the “HPLC mean peak area” value is 89.8 percent area; the “main impurity, retention time 7 min, HPLC area” value was 0.8 percent area; the “main impurity, retention time 8 min, HPLC area” value amounted to 1.6 percent area; the “main impurity, retention time 12 min, HPLC area” value was found to be 0.6 percent area. Under setting [1], the “main impurity, retention time 14 min, HPLC area” value is 0.8 percent area; the “main impurity, retention time 30 min, HPLC area” value is 2.8 percent area; the “main impurity, retention time 31 min, HPLC area” value came out at 1.7 percent area. Where the note is “t = 0”, the “HPLC mean peak area” value stood at 92.5 percent area; the “main impurity, retention time 7 min, HPLC area” value is 0.1 percent area; the “main impurity, retention time 8 min, HPLC area” value is on record as 0.2 percent area; the “main impurity, retention time 12 min, HPLC area” value came out at 0.3 percent area. Under “t = 0”, the “main impurity, retention time 14 min, HPLC area” value is reported as 1.3 percent area; the “main impurity, retention time 30 min, HPLC area” value was 2.3 percent area; the “main impurity, retention time 31 min, HPLC area” value came out at 0.7 percent area.
